Consider 2 molecules from patent publication US20250145605A1, “CRYSTAL FORM AND SALT OF PHENOTHIAZINE COMPOUND, PREPARATION METHOD THEREFOR AND USE THEREOF” (CHENGDU HENGHAO INNOVATIVE SCIENCE AND TECHNOLOGY CO., LTD., priority 2022, published 2025).

Assay [1] has as its system mouse hippocampal neuronal cells HT22. Nature of the assay: Inhibition of Erastin-induced ferroptosis, CCK8 cell viability test, HT22. It is filed as cell-based. Particulars: 24 h. How it is done:
(§1) Experimental method: In this example, a screening model for ferroptosis was constructed to investigate a ferroptosis inhibitor. Specifically, the screening model for ferroptosis was mainly based on the CCK8 cell viability test. Firstly, mouse hippocampal neuronal cells HT22 and human neuroblastoma SH-SY5Y cells were cultured in a dish. 80 μL of cells (5000 cells/well) in logarithmic growth phase were seeded to a 96-well plate per well, and then cultured in an incubator at 37° C., 5% CO2 to allow adhesion of cells. After 24 h, 10 μL of the compound of the present disclosure at various concentrations prepared with the specified medium and 10 μL of Erastin (ferroptosis inducer) at a final concentration of […] were added. 3 replicate wells were set for each compound to ensure the accuracy of the results. A positive control group (10 μL of a certain concentration of the compound Ferrostain-1 and 10 μL of Erastin (ferroptosis inducer) prepared with the same medium were added with reference to the above description). […] The absorbance at 450 nm was detected by a microplate reader to calculate the inhibition rate of ferroptosis by the drug. […]
(§2) The inhibition rate change curve was fitted and the IC50 was calculated by the software GraphPadPrism6.

Assay [2] relates to human neuroblastoma SH-SY5Y cells. Nature of the assay: Inhibition of Erastin-induced ferroptosis, CCK8 cell viability test, SH-SY5Y. Format: cell-based. The settings on record: Erastin at a final concentration of 10 M, 24 h. As for the experimental part:
as §1, §2

For `CCOC(=O)c1ccc(NC2CCCCC2)c(N)c1` [Ferrostain-1], the half-maximal inhibitory concentration (IC50) (usually the midpoint of a concentration-inhibition curve) in assay [1] (HT22, Erastin at a final concentration of 10 µM) amounted to 0.0962 µM; in assay [2] it was 0.0539 µM.
On to `CC(c1ccc(N2CCN(C)CC2)cc1)c1ccc2c(c1)Nc1ccccc1S2` (stereo not shown), for which the IC50 came out at 0.00287 µM in assay [1] (Mus musculus, HT-22, HT22, Erastin at a final concentration of 10 µM) and 0.00141 µM in assay [2] (Homo sapiens).
